From ChEMBL document CHEMBL2440076, “New triarylpyrazoles as broad-spectrum anticancer agents: design, synthesis, and biological evaluation” (Eur J Med Chem, 2013)

Legend:
Type in all cases: functional
UACC-257 [1] = experiment: Growth inhibition of human UACC257 cells assessed as cell growth at 5X10'-5 M after 48 hrs by sulforhodamine B assay; conditions: UACC-257, 48 h, read-out: Activity
MCF7 [2] = experiment: Growth inhibition of human MCF7 cells assessed as cell growth at 5X10'-9 M after 48 hrs by sulforhodamine B assay; conditions: MCF7, 48 h, read-out: Activity
SK-MEL-5 = experiment: Growth inhibition of human SK-MEL-5 cells assessed as cell growth at 5X10'-5 M after 48 hrs by sulforhodamine B assay; conditions: SK-MEL-5, 48 h, read-out: Activity
MCF7 [3] = experiment: Growth inhibition of human MCF7 cells assessed as cell growth at 5X10'-6 M after 48 hrs by sulforhodamine B assay; conditions: MCF7, 48 h, read-out: Activity
HCT-15 [4] = experiment: Growth inhibition of human HCT15 cells assessed as cell growth at 5X10'-8 M after 48 hrs by sulforhodamine B assay; conditions: HCT-15, 48 h, read-out: Activity
OVCAR-5 = experiment: Growth inhibition of human OVCAR5 cells assessed as cell growth at 5X10'-5 M after 48 hrs by sulforhodamine B assay; conditions: OVCAR-5, 48 h, read-out: Activity
CAKI-1 = experiment: Growth inhibition of human CAKI-1 cells assessed as cell growth at 5X10'-7 M after 48 hrs by sulforhodamine B assay; conditions: CAKI-1, 48 h, read-out: Activity
HOP-92 [5] = experiment: Growth inhibition of human HOP92 cells assessed as cell growth at 5X10'-5 M after 48 hrs by sulforhodamine B assay; conditions: HOP-92, 48 h, read-out: Activity
SK-MEL-2 = experiment: Growth inhibition of human SK-MEL-2 cells assessed as cell growth at 5X10'-8 M after 48 hrs by sulforhodamine B assay; conditions: SK-MEL-2, 48 h, read-out: Activity
MDA-MB-435 [6] = experiment: Growth inhibition of human MDA-MB-435 cells assessed as cell growth at 5X10'-6 M after 48 hrs by sulforhodamine B assay; conditions: MDA-MB-435, 48 h, read-out: Activity
NCI-H226 [7] = experiment: Growth inhibition of human NCI-H226 cells assessed as cell growth at 5X10'-5 M after 48 hrs by sulforhodamine B assay; conditions: NCI-H226, 48 h, read-out: Activity
MDA-MB-435 [8] = experiment: Growth inhibition of human MDA-MB-435 cells assessed as cell growth at 5X10'-5 M after 48 hrs by sulforhodamine B assay; conditions: MDA-MB-435, 48 h, read-out: Activity
NCI-H226 [9] = experiment: Growth inhibition of human NCI-H226 cells assessed as cell growth at 5X10'-9 M after 48 hrs by sulforhodamine B assay; conditions: NCI-H226, 48 h, read-out: Activity
SK-MEL-28 = experiment: Growth inhibition of human SK-MEL-28 cells assessed as cell growth at 5X10'-5 M after 48 hrs by sulforhodamine B assay; conditions: SK-MEL-28, 48 h, read-out: Activity
RPMI-8226 = experiment: Growth inhibition of human RPMI8226 cells assessed as cell growth at 5X10'-7 M after 48 hrs by sulforhodamine B assay; conditions: RPMI-8226, 48 h, read-out: Activity
DU-145 [10] = experiment: Growth inhibition of human DU145 cells assessed as cell growth at 5X10'-9 M after 48 hrs by sulforhodamine B assay; conditions: DU-145, 48 h, read-out: Activity
[11] = Growth inhibition of human Hs 578T cells assessed as cell growth at 5X10'-5 M after 48 hrs by sulforhodamine B assay; conditions: read-out: Activity
NCI-H226 [12] = experiment: Growth inhibition of human NCI-H226 cells assessed as cell growth at 5X10'-6 M after 48 hrs by sulforhodamine B assay; conditions: NCI-H226, 48 h, read-out: Activity
KM12 = experiment: Growth inhibition of human KM12 cells assessed as cell growth at 5X10'-8 M after 48 hrs by sulforhodamine B assay; conditions: KM12, 48 h, read-out: Activity
LOX IMVI = experiment: Growth inhibition of human LOXIMVI cells assessed as cell growth at 5X10'-9 M after 48 hrs by sulforhodamine B assay; conditions: read-out: Activity
ACHN = experiment: Growth inhibition of human ACHN cells assessed as cell growth at 5X10'-6 M after 48 hrs by sulforhodamine B assay; conditions: read-out: Activity
MCF7 [13] = experiment: Growth inhibition of human MCF7 cells assessed as cell growth at 5X10'-7 M after 48 hrs by sulforhodamine B assay; conditions: MCF7, 48 h, read-out: Activity
786-0 = experiment: Growth inhibition of human 786-0 cells assessed as cell growth at 5X10'-7 M after 48 hrs by sulforhodamine B assay; conditions: 786-0, 48 h, read-out: Activity
HT-29 = experiment: Growth inhibition of human HT-29 cells assessed as cell growth at 5X10'-8 M after 48 hrs by sulforhodamine B assay; conditions: HT-29, 48 h, read-out: Activity
[14] = Growth inhibition of human Hs 578T cells assessed as cell growth at 5X10'-8 M after 48 hrs by sulforhodamine B assay; conditions: read-out: Activity
A498 = experiment: Growth inhibition of human A498 cells assessed as cell growth at 5X10'-8 M after 48 hrs by sulforhodamine B assay; conditions: A498, 48 h, read-out: Activity
HOP-92 [15] = experiment: Growth inhibition of human HOP92 cells assessed as cell growth at 5X10'-8 M after 48 hrs by sulforhodamine B assay; conditions: HOP-92, 48 h, read-out: Activity
HCT-15 [16] = experiment: Growth inhibition of human HCT15 cells assessed as cell growth at 5X10'-5 M after 48 hrs by sulforhodamine B assay; conditions: HCT-15, 48 h, read-out: Activity
U-251 = experiment: Growth inhibition of human U251 cells assessed as cell growth at 5X10'-5 M after 48 hrs by sulforhodamine B assay; conditions: U-251, 48 h, read-out: Activity
SF-295 = experiment: Growth inhibition of human SF295 cells assessed as cell growth at 5X10'-9 M after 48 hrs by sulforhodamine B assay; conditions: SF-295, 48 h, read-out: Activity
NCI-H522 = experiment: Growth inhibition of human NCI-H522 cells assessed as cell growth at 5X10'-6 M after 48 hrs by sulforhodamine B assay; conditions: NCI-H522, 48 h, read-out: Activity
DU-145 [17] = experiment: Growth inhibition of human DU145 cells assessed as cell growth at 5X10'-7 M after 48 hrs by sulforhodamine B assay; conditions: DU-145, 48 h, read-out: Activity
UACC-257 [18] = experiment: Growth inhibition of human UACC257 cells assessed as cell growth at 5X10'-8 M after 48 hrs by sulforhodamine B assay; conditions: UACC-257, 48 h, read-out: Activity
Malme-3M = experiment: Growth inhibition of human MALME-3M cells assessed as cell growth at 5X10'-5 M after 48 hrs by sulforhodamine B assay; conditions: read-out: Activity
[19] = Growth inhibition of human NCI-ADR-RES cells assessed as cell growth at 5X10'-5 M after 48 hrs by sulforhodamine B assay; conditions: read-out: Activity
SNB-19 = experiment: Growth inhibition of human SNB19 cells assessed as cell growth at 5X10'-9 M after 48 hrs by sulforhodamine B assay; conditions: SNB-19, 48 h, read-out: Activity
SF-268 = experiment: Growth inhibition of human SF268 cells assessed as cell growth at 5X10'-5 M after 48 hrs by sulforhodamine B assay; conditions: SF-268, 48 h, read-out: Activity

Row | Compound | growth at 50 µM (UACC-257 [1]) [%] | growth at 0.005 µM (MCF7 [2]) [%] | growth at 50 µM (SK-MEL-5) [%] | growth at 5 µM (MCF7 [3]) [%] | growth at 0.05 µM (HCT-15 [4]) [%] | growth at 50 µM (OVCAR-5) [%] | growth at 0.5 µM (CAKI-1) [%] | growth at 50 µM (HOP-92 [5]) [%] | growth at 0.05 µM (SK-MEL-2) [%] | growth at 5 µM (MDA-MB-435 [6]) [%] | growth at 50 µM (NCI-H226 [7]) [%] | growth at 50 µM (MDA-MB-435 [8]) [%] | growth at 0.005 µM (NCI-H226 [9]) [%] | growth at 50 µM (SK-MEL-28) [%] | growth at 0.5 µM (RPMI-8226) [%] | growth at 0.005 µM (DU-145 [10]) [%] | growth at 50 µM [11] [%] | growth at 5 µM (NCI-H226 [12]) [%] | growth at 0.05 µM (KM12) [%] | growth at 0.005 µM (LOX IMVI) [%] | other results
1 | O=C(Nc1cccc(-n2cc(-c3ccncc3)c(-c3ccc(Cl)c(O)c3)n2)c1)Nc1cc(C(F)(F)F)cc(C(F)(F)F)c1 | -82 | 91 | -94 | 4 | 93 | -89 | 74 | -89 | 113 | -31 | -58 | -69 | 98 | -95 | 49 | 106 | -40 | 6 | 103 | 98 | growth at 5 µM (ACHN): 2%; growth at 0.5 µM (MCF7 [13]): 52%; growth at 0.5 µM (786-0): 93%; growth at 0.05 µM (HT-29): 107%; growth at 0.05 µM [14]: 94%; growth at 0.05 µM (A498): 86%; growth at 0.05 µM (HOP-92 [15]): 75%; growth at 50 µM (HCT-15 [16]): -74%; growth at 50 µM (U-251): -91%; growth at 0.005 µM (SF-295): 92%; growth at 5 µM (NCI-H522): -28%; growth at 0.5 µM (DU-145 [17]): 80%; growth at 0.05 µM (UACC-257 [18]): 89%; growth at 50 µM (Malme-3M): -64%; growth at 50 µM [19]: -56%; growth at 0.005 µM (SNB-19): 90%; growth at 50 µM (SF-268): -65%
2 | O=C(Nc1cccc(-n2cc(-c3ccncc3)c(-c3ccc(Cl)c(O)c3)n2)c1)c1ccc(N2CCOCC2)c(C(F)(F)F)c1 | -9 | 89 | -70 | 41 | 99 | 71 | 98 | -15 | 98 | 28 | 58 | 1 | 98 | -54 | 83 | 98 | 8 | 100 | 93 | 95 | growth at 5 µM (ACHN): 25%; growth at 0.5 µM (MCF7 [13]): 78%; growth at 0.5 µM (786-0): 95%; growth at 0.05 µM (HT-29): 101%; growth at 0.05 µM [14]: 87%; growth at 0.05 µM (A498): 83%; growth at 0.05 µM (HOP-92 [15]): 78%; growth at 50 µM (HCT-15 [16]): -7%; growth at 50 µM (U-251): -7%; growth at 0.005 µM (SF-295): 93%; growth at 5 µM (NCI-H522): 29%; growth at 0.5 µM (DU-145 [17]): 96%; growth at 0.05 µM (UACC-257 [18]): 104%; growth at 50 µM (Malme-3M): -40%; growth at 50 µM [19]: 16%; growth at 0.005 µM (SNB-19): 97%; growth at 50 µM (SF-268): 30%
